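1) Cells in 96-well plates. 2) Compound, 48 h, 5 concentrations. 3) Linear interpolation between surrounding doses. 4) Unreached endpoint = highest concentration. Abbreviation: GI50, concentration required for 50% inhibition of growth.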 Active and inactive are the calls of the source. Rule as the data show it: active = GI50 up to about 1.1 µM and inactive = higher.
Columns and labels:
Assay in all cases: growth of human tumour cells (NCI), 48 h
MDA-MB-231 = tested on: MDA-MB-231
RXF 393 = tested on: RXF 393
HOP-62 = tested on: HOP-62
SK-MEL-5 = tested on: SK-MEL-5
NCI-H460 = tested on: NCI-H460
SNB-19 = tested on: SNB-19
HCT-15 = tested on: HCT-15
M14 = tested on: M14
SK-MEL-28 = tested on: SK-MEL-28
T47D = tested on: T47D
CAKI-1 = tested on: CAKI-1
U-251 = tested on: U-251
MDA-N = tested on: MDA-N
SNB-75 = tested on: SNB-75
BT-549 = tested on: BT-549
HL-60 = tested on: HL-60
HCT-116 = tested on: HCT-116
IGROV-1 = tested on: IGROV-1
EKVX = tested on: EKVX
MCF7 = tested on: MCF7

Row | SMILES | GI50 (MDA-MB-231) | GI50 (RXF 393) | GI50 (HOP-62) | GI50 (SK-MEL-5) | GI50 (NCI-H460) | GI50 (SNB-19) | GI50 (HCT-15) [µM] | GI50 (M14) | GI50 (SK-MEL-28) | GI50 (T47D) | GI50 (CAKI-1) | GI50 (U-251) | GI50 (MDA-N) | GI50 (SNB-75) | GI50 (BT-549) | GI50 (HL-60) | GI50 (HCT-116) | GI50 (IGROV-1) | GI50 (EKVX) | GI50 (MCF7)
1 | FC(F)(F)C1(C(F)(F)F)O[Si]2(OC(C(F)(F)F)(C(F)(F)F)c3ccccc32)c2ccccc21 | 8.24 µM (inactive) | 13.6 µM (inactive) | 8.67 µM (inactive) | 15.5 µM (inactive) | 5.98 µM (inactive) | 9.57 µM (inactive) | 17 | 13.2 µM (inactive) | 12 µM (inactive) | 9.95 µM (inactive) | 19.1 µM (inactive) | 3.95 µM (inactive) | 13.4 µM (inactive) | 14.6 µM (inactive) | 14.5 µM (inactive) | 13.6 µM (inactive) | 5.45 µM (inactive) | 16.3 µM (inactive) | 15 µM (inactive) | 14.4 µM (inactive)
2 | COC(=O)/C=C1\C(=O)N(C(C)=O)c2ccccc21 | 7.6 µM (inactive) | 6.04 µM (inactive) | 12.9 µM (inactive) | 8.73 µM (inactive) | 10.5 µM (inactive) | 18 µM (inactive) | 6.19 | 13.2 µM (inactive) | 12.3 µM (inactive) | 8.39 µM (inactive) | 0.0671 µM (active) | 12.8 µM (inactive) | 7.85 µM (inactive) | 12.5 µM (inactive) | 3.47 µM (inactive) | 2.03 µM (inactive) | 8.28 µM (inactive) | 7.87 µM (inactive) | 12.3 µM (inactive) | 3.64 µM (inactive)
3 | COc1ccc(C(=C2C(=O)N(c3ccccc3)C(=O)C2=C(C)C)c2ccc(OC)cc2)cc1 | 5.09 µM (inactive) | 2.09 µM (inactive) | 9.02 µM (inactive) | 4.61 µM (inactive) | 4.22 µM (inactive) | 4.07 µM (inactive) | 2.92 | 2.4 µM (inactive) | 3.09 µM (inactive) | 3.27 µM (inactive) | 3.66 µM (inactive) | 3.37 µM (inactive) | 1.7 µM (inactive) | 2.87 µM (inactive) | 12.4 µM (inactive) | 0.998 µM (active) | 3.72 µM (inactive) | 3.44 µM (inactive) | 2.94 µM (inactive) | 3.44 µM (inactive)
4 | CN(C)c1ccc(C=c2c3ccccc3n3c2cc(-c2ccc(Cl)cc2)[n+]3C)cc1 | 0.217 µM (active) | 0.822 µM (active) | 0.406 µM (active) | 0.167 µM (active) | 0.263 µM (active) | 0.268 µM (active) | 1.47 | 0.301 µM (active) | 0.519 µM (active) | 0.133 µM (active) | 0.259 µM (active) | 0.0269 µM (active) | 0.327 µM (active) | 0.307 µM (active) | 0.201 µM (active) | 0.101 µM (active) | 0.0653 µM (active) |  | 0.617 µM (active) | 0.0953 µM (active)
5 | CCOc1c2ccsc2c(OCC)c2ccsc12 | 8.57 µM (inactive) | 3.59 µM (inactive) | 4.78 µM (inactive) | 3.34 µM (inactive) | 3.58 µM (inactive) | 4.37 µM (inactive) | 4.06 | 4.69 µM (inactive) | 9.38 µM (inactive) | 3.94 µM (inactive) | 4.61 µM (inactive) | 3.72 µM (inactive) | 0.94 µM (active) | 3.31 µM (inactive) | > 28.8 µM (inactive) | 2.07 µM (inactive) | 4.06 µM (inactive) | 5.06 µM (inactive) | > 29.6 µM (inactive) | 3.59 µM (inactive)
6 | CC(NNC(=O)c1ccncc1)c1ccc(Cl)cc1Cl (stereo not drawn) | > 100 µM (inactive) | > 100 µM (inactive) | 88.5 µM (inactive) | 67.3 µM (inactive) | 51.2 µM (inactive) | > 100 µM (inactive) | 65.6 | > 100 µM (inactive) | > 100 µM (inactive) | 51.9 µM (inactive) | > 100 µM (inactive) | > 100 µM (inactive) | > 100 µM (inactive) | > 100 µM (inactive) | > 100 µM (inactive) | 46.5 µM (inactive) | > 100 µM (inactive) | > 100 µM (inactive) | > 100 µM (inactive) | > 100 µM (inactive)
7 | COc1cc(C2c3cc4c(cc3OC(NNC(N)=S)C2C)OCO4)cc(OC)c1OC (stereo not drawn) | 0.4 µM (active) | 0.279 µM (active) | 0.344 µM (active) | 0.269 µM (active) | 0.376 µM (active) | 0.471 µM (active) | 0.451 | 0.351 µM (active) | 0.524 µM (active) | 26.1 µM (inactive) | 0.54 µM (active) | 0.362 µM (active) | 0.084 µM (active) | 71.3 µM (inactive) | 0.804 µM (active) | 0.165 µM (active) | 0.244 µM (active) | 0.441 µM (active) | 22.5 µM (inactive) | 0.457 µM (active)
8 | COC1(CC[C@H](C)COC2OC(CO)C(O)C(O)C2O)O[C@H]2C[C@H]3[C@@H]4CC=C5C[C@@H](OC6OC(CO)C(O)C(OC7OC(CO)C(O)C(O)C7O)C6OC6OC(C)C(O)C(O)C6O)CC[C@]5(C)[C@H]4CC[C@]3(C)[C@H]2[C@@H]1C (stereo partly drawn) | 3.7 µM (inactive) | 4.24 µM (inactive) | 5.51 µM (inactive) | 5.27 µM (inactive) | 3.62 µM (inactive) | 7.31 µM (inactive) | 2.96 | 2.84 µM (inactive) | 2.31 µM (inactive) | 2.61 µM (inactive) | 5.45 µM (inactive) | 2.12 µM (inactive) | 8.81 µM (inactive) | 2.55 µM (inactive) | 7.6 µM (inactive) | 3.12 µM (inactive) | 4.5 µM (inactive) | 3.73 µM (inactive) | 15.9 µM (inactive) | 9.2 µM (inactive)
9 | CC(=O)N1C(c2[nH]c3ccccc3c2Cc2ccccc2)CCN1c1ccccc1 (stereo not drawn) | > 10 µM (inactive) | 4.16 µM (inactive) | > 10 µM (inactive) | > 10 µM (inactive) | 5.22 µM (inactive) | > 10 µM (inactive) | > 10 | 7.93 µM (inactive) | > 10 µM (inactive) | 6.41 µM (inactive) | 8.47 µM (inactive) |  | 7.29 µM (inactive) | 5.83 µM (inactive) | > 10 µM (inactive) | 5.42 µM (inactive) | 4.72 µM (inactive) | > 10 µM (inactive) | > 10 µM (inactive) | 8.45 µM (inactive)
10 | Cc1cc(=O)n2nc(CCl)sc2n1 | 20.7 µM (inactive) | 5.94 µM (inactive) | 18.1 µM (inactive) | 10.6 µM (inactive) | 11.4 µM (inactive) | 15.8 µM (inactive) | 13.6 | 11.2 µM (inactive) | 13.2 µM (inactive) | 15.3 µM (inactive) | 10.3 µM (inactive) | 5.13 µM (inactive) | 14 µM (inactive) | 10.8 µM (inactive) | 3.58 µM (inactive) | 17.3 µM (inactive) | 12.4 µM (inactive) | 14.9 µM (inactive) | 17.4 µM (inactive) | 13.8 µM (inactive)
11 | Nc1nc(N)c2nn(-c3ccc(C(=O)O)cc3)nc2n1 | > 100 µM (inactive) | > 100 µM (inactive) | > 100 µM (inactive) | > 100 µM (inactive) | > 100 µM (inactive) | > 100 µM (inactive) | > 100 | > 100 µM (inactive) | > 100 µM (inactive) | > 100 µM (inactive) | > 100 µM (inactive) | > 100 µM (inactive) | > 100 µM (inactive) | > 100 µM (inactive) | > 100 µM (inactive) | 72.1 µM (inactive) | > 100 µM (inactive) | > 100 µM (inactive) | > 100 µM (inactive) | > 100 µM (inactive)
12 | Cn1cnc(N)c(N=O)c1=O | > 10 µM (inactive) | > 10 µM (inactive) | > 10 µM (inactive) | > 10 µM (inactive) | > 10 µM (inactive) | > 10 µM (inactive) | > 10 | > 10 µM (inactive) | > 10 µM (inactive) | > 10 µM (inactive) | > 10 µM (inactive) | > 10 µM (inactive) | > 10 µM (inactive) | > 10 µM (inactive) | > 10 µM (inactive) | > 10 µM (inactive) | > 10 µM (inactive) | > 10 µM (inactive) | > 10 µM (inactive) | > 10 µM (inactive)
13 | CN1CCOC1(C)c1ccccc1 (stereo not drawn) | > 100 µM (inactive) | > 100 µM (inactive) | > 100 µM (inactive) | > 26.1 µM (inactive) | > 100 µM (inactive) | > 100 µM (inactive) | > 100 | > 100 µM (inactive) | > 100 µM (inactive) | > 100 µM (inactive) | > 100 µM (inactive) | > 100 µM (inactive) | > 100 µM (inactive) | > 100 µM (inactive) | > 100 µM (inactive) | > 100 µM (inactive) | > 100 µM (inactive) | > 100 µM (inactive) | > 100 µM (inactive) | > 100 µM (inactive)
14 | Cc1cc(=O)nc(S(=O)(=O)NC(=S)Nc2ccc(Cl)cc2)[nH]1 | > 100 µM (inactive) | 2.74 µM (inactive) | > 100 µM (inactive) | > 100 µM (inactive) | > 100 µM (inactive) | > 100 µM (inactive) | > 100 | > 100 µM (inactive) | > 100 µM (inactive) | 44.9 µM (inactive) | 77.8 µM (inactive) | > 100 µM (inactive) | > 100 µM (inactive) | 64 µM (inactive) | > 100 µM (inactive) | > 100 µM (inactive) | > 100 µM (inactive) | > 100 µM (inactive) | 39.5 µM (inactive) | > 100 µM (inactive)
